Values of other authors, collected in US7879906B2, “GABA analogs, compositions and methods for manufacturing thereof” (Anchen Laboratories, Inc., priority 2006, dated 2011).

Test system: mouse

| SMILES | toxicity (LD50, mouse) |
| --- | --- |
| O=C1CC2(CCCCC2)CN1 [gabapentin lactam] | 300 mg/kg |
| NCC1(CC(=O)O)CCCCC1 [gabapentin] | more than 8000 mg/kg |
